The results in this text go back to US10766869B2, “Triazoles for the treatment of demyelinating dieases” (Vertex Pharmaceuticals Incorporated, priority 2015, dated 2020).

This assay deals with primary rat mixed cortical cells. In words: In vitro myelination assay (MBP positive myelin strands, fold myelin pixels above background). Format: cell-based. To be noted: Rattus norvegicus, relative to baseline of no added compound; for fold induction at 1 µM: 1.0 μM compound, read-out: Fold myelin pixels above background, 1.0 μM; for fold induction at 10 µM: 10.0 μM compound, read-out: Fold myelin pixels above background, 10.0 μM. A digest of the protocol:
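Fourteen-day treatment of primary P1 rat mixed cortical cultures, re-dosed at days 6 and 10, at 1.0 μM and 10.0 μM. MBP immunofluorescence was imaged at 10× and myelin strands quantified by software, normalised to untreated wells as fold above background.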

For `Fc1cc(-n2cnc(Nc3cc(C4CC4)cc(N4CCN(C5COC5)CC4)c3)n2)cc(F)n1` [Compound 121, N-[3-cyclopropyl-5-[4-(oxetan-3-yl)piperazin-1-yl]phenyl]-1-(2,6-difluoro-4-pyridyl)-1,2,4-triazol-3-amine], the fold induction at 1 µM lay within 100 to 1000 and the fold induction at 10 µM was at most 1.
On the same counts, the results for `COCC1CCN(c2cc(C)cc(Nc3ncn(-c4ccnc(F)c4)n3)c2)CC1` [Compound 122, 1-(2-fluoro-4-pyridyl)-N-[3-[4-(methoxymethyl)-1-piperidyl]-5-methyl-phenyl]-1,2,4-triazol-3-amine] are 10 to 100 and 1000 to 10000.
Regarding `CC(C)(O)[C@@H]1CN(c2cc(Nc3ncn(-c4cc(F)cc(F)c4)n3)cc(C(F)(F)F)c2)CCN1` [Compound 123, 2-[(2S)-4-[3-[[1-(3,5-difluorophenyl)-1,2,4-triazol-3-yl]amino]-5-(trifluoromethyl)phenyl]piperazin-2-yl]propan-2-ol], the fold induction at 1 µM lay within 1 to 10 and the fold induction at 10 µM was at most 1.
In the case of `CCc1cc(Nc2ncn(-c3cnccn3)n2)cc(N2CCNCC2)c1` [Compound 124, N-(3-ethyl-5-piperazin-1-yl-phenyl)-1-pyrazin-2-yl-1,2,4-triazol-3-amine], the fold induction at 1 µM lay within 1000 to 10000 and the fold induction at 10 µM was at most 1.
Consider `Cc1cc(Nc2ncn(-c3cc(F)cc(F)c3)n2)cc(N2CCN(CC(=O)O)CC2)c1` [Compound 125, 2-[4-[3-[[1-(3,5-difluorophenyl)-1,2,4-triazol-3-yl]amino]-5-methyl-phenyl]piperazin-1-yl]acetic acid], for which the fold induction at 1 µM is 10 to 100 and the fold induction at 10 µM was 1 to 10.
On the same counts, the results for `Cc1cc(Nc2ncn(-c3ccccc3)n2)cc(N2CCN(C3CCOC3C)CC2)c1` (stereo not shown) [Compound 127, N-[3-methyl-5-[4-(2-methyltetrahydrofuran-3-yl)piperazin-1-yl]phenyl]-1-phenyl-1,2,4-triazol-3-amine] are 1000 to 10000 and 1 to 10.
In the case of `Cc1cc(Nc2ncn(-c3cc(F)cc(F)c3)n2)cc(N2CCN3CCC[C@@H]3C2)c1` [Compound 128, N-[3-[(8aR)-3,4,6,7,8,8a-hexahydro-1H-pyrrolo[1,2-a]pyrazin-2-yl]-5-methyl-phenyl]-1-(3,5-difluorophenyl)-1,2,4-triazol-3-amine], the fold induction at 1 µM lay in the range of 10 to 100 and the fold induction at 10 µM is 10 to 100.
Take `Cc1cc(-n2cnc(Nc3cc(C4CC4)cc(N4CCN(C5COC5)CC4)c3)n2)nc(C)n1` [Compound 129, N-[3-cyclopropyl-5-[4-(oxetan-3-yl)piperazin-1-yl]phenyl]-1-(2,6-dimethylpyrimidin-4-yl)-1,2,4-triazol-3-amine]: the fold induction at 1 µM was at most 1 and the fold induction at 10 µM was at most 1.
For `Fc1cc(F)cc(-n2cnc(Nc3cc(N4CCN(C5COC5)CC4)cc(C(F)(F)F)c3)n2)c1` [Compound 130, 1-(3,5-difluorophenyl)-N-[3-[4-(oxetan-3-yl)piperazin-1-yl]-5-(trifluoromethyl)phenyl]-1,2,4-triazol-3-amine], the fold induction at 1 µM is 1000 to 10000 and the fold induction at 10 µM lay in the range of 100 to 1000.
The like results for `Cc1cc(Nc2ncn(-c3cc(F)cc(F)c3)n2)cc(C2COC2)c1` [Compound 131, 1-(3,5-difluorophenyl)-N-[3-methyl-5-(oxetan-3-yl)phenyl]-1,2,4-triazol-3-amine] were, in that order, 10 to 100 and 1000 to 10000.
For `CCc1cc(Nc2ncn(-c3ccnc(SC)n3)n2)cc(N2CCN(C3COC3)CC2)c1` [Compound 132, N-[3-ethyl-5-[4-(oxetan-3-yl)piperazin-1-yl]phenyl]-1-(2-methylsulfanylpyrimidin-4-yl)-1,2,4-triazol-3-amine], the fold induction at 1 µM lay in the range of 1 to 10 and the fold induction at 10 µM lay within 1 to 10.
Turning to `Cc1cc(Nc2ncn(-c3ccccc3)n2)cc(N2CCN(C)C(C)C2)c1` (stereo not shown) [Compound 133, N-[3-(3,4-dimethylpiperazin-1-yl)-5-methyl-phenyl]-1-phenyl-1,2,4-triazol-3-amine], the fold induction at 1 µM lay in the range of 1000 to 10000 and the fold induction at 10 µM is at most 1.
The like results for `Clc1cncc(-n2cnc(Nc3cc(C4CC4)cc(N4CCN(C5COC5)CC4)c3)n2)c1` [Compound 134, 1-(5-chloro-3-pyridyl)-N-[3-cyclopropyl-5-[4-(oxetan-3-yl)piperazin-1-yl]phenyl]-1,2,4-triazol-3-amine] were, in that order, 100 to 1000 and 10 to 100.
For `Clc1cc(Nc2ncn(-c3ccccc3)n2)cc(N2CCOCC2)n1` [Compound 135, 2-chloro-6-morpholino-N-(1-phenyl-1,2,4-triazol-3-yl)pyridin-4-amine], the fold induction at 1 µM fell in the range of 1000 to 10000 and the fold induction at 10 µM was at most 1.
As for `Cc1cc(Nc2ncn(-c3cnccn3)n2)cc(N2CCN(C3(C)COC3)CC2)c1` [Compound 136, N-[3-methyl-5-[4-(3-methyloxetan-3-yl)piperazin-1-yl]phenyl]-1-pyrazin-2-yl-1,2,4-triazol-3-amine], the fold induction at 1 µM is 1 to 10 and the fold induction at 10 µM fell in the range of 10 to 100.
The like results for `Cc1cc(Nc2ncn(-c3cc(F)cc(F)c3)n2)cc(N2CCN(C3CCOC3)CC2)c1` (stereo not shown) [Compound 137, 1-(3,5-difluorophenyl)-N-[3-methyl-5-(4-tetrahydrofuran-3-ylpiperazin-1-yl)phenyl]-1,2,4-triazol-3-amine] were, in that order, 1000 to 10000 and 100 to 1000.
The like results for `Cc1cc(Nc2ncn(-c3ccccn3)n2)cc(N2CCN(C)CC2)c1` [Compound 138, N-[3-methyl-5-(4-methylpiperazin-1-yl)phenyl]-1-(2-pyridyl)-1,2,4-triazol-3-amine] were, in that order, 10 to 100 and 100 to 1000.
Consider `Cc1cc(Nc2ncn(-c3cc(F)cc(F)c3)n2)cc(N2CC[N+]([O-])(C3COC3)CC2)c1` [Compound 139, 1-(3,5-difluorophenyl)-N-[3-methyl-5-[4-(oxetan-3-yl)-4-oxido-piperazin-4-ium-1-yl]phenyl]-1,2,4-triazol-3-amine], for which the fold induction at 1 µM lay in the range of 100 to 1000 and the fold induction at 10 µM is 1 to 10.
With `Cc1cc(Nc2ncn(-c3ccc(C#N)c(F)c3)n2)cc(N2CCN(C3COC3)CC2)c1` [Compound 140, 2-fluoro-4-[3-[3-methyl-5-[4-(oxetan-3-yl)piperazin-1-yl]anilino]-1,2,4-triazol-1-yl]benzonitrile], the fold induction at 1 µM fell in the range of 1 to 10 and the fold induction at 10 µM was in the range of 1 to 10.
Regarding `Cc1cc(Nc2ncn(-c3cccc(Cl)c3)n2)cc(N2CCN(C)CC2)c1` [Compound 141, 1-(3-chlorophenyl)-N-[3-methyl-5-(4-methylpiperazin-1-yl)phenyl]-1,2,4-triazol-3-amine], the fold induction at 1 µM was in the range of 100 to 1000 and the fold induction at 10 µM was at most 1.
The like results for `Cc1cc(Nc2ncn(-c3ccccc3)n2)cc(N2CCC(C#N)CC2)c1` [Compound 142, 1-[3-methyl-5-[(1-phenyl-1,2,4-triazol-3-yl)amino]phenyl]piperidine-4-carbonitrile] were, in that order, 1000 to 10000 and 100 to 1000.
On the same counts, the results for `COC(=O)N1CCCC(c2cc(C)cc(Nc3ncn(-c4ccccc4)n3)c2)C1` (stereo not shown) [Compound 143, methyl 3-[3-methyl-5-[(1-phenyl-1,2,4-triazol-3-yl)amino]phenyl]piperidine-1-carboxylate] are 1000 to 10000 and 1000 to 10000.
Regarding `CC(=O)N1CCN(c2cc(Nc3ncn(-c4ccccc4)n3)cc(C(F)F)c2)CC1` [Compound 144, 1-[4-[3-(difluoromethyl)-5-[(1-phenyl-1,2,4-triazol-3-yl)amino]phenyl]piperazin-1-yl]ethanone], the fold induction at 1 µM lay within 100 to 1000 and the fold induction at 10 µM was at most 1.
On the same counts, the results for `COc1cccc(-n2cnc(Nc3cc(Cl)nc(N4CCOCC4)c3)n2)c1` [Compound 145, 2-chloro-N-[1-(3-methoxyphenyl)-1,2,4-triazol-3-yl]-6-morpholino-pyridin-4-amine] are 10 to 100 and 10 to 100.
On the same counts, the results for `Cc1cc(Nc2ncn(-c3ccccc3)n2)cc(N2CCCC(C#N)C2)c1` (stereo not shown) [Compound 146, 1-[3-methyl-5-[(1-phenyl-1,2,4-triazol-3-yl)amino]phenyl]piperidine-3-carbonitrile] are 1000 to 10000 and 100 to 1000.
The like results for `Cc1cc(Nc2ncn(-c3cccc(F)c3)n2)cc(C2COC2)c1` [Compound 147, 1-(3-fluorophenyl)-N-[3-methyl-5-(oxetan-3-yl)phenyl]-1,2,4-triazol-3-amine] were, in that order, 1000 to 10000 and 10 to 100.
Consider `COCCC1CCN(c2cc(C)cc(Nc3ncn(-c4ccccc4)n3)c2)CC1` [Compound 148, N-[3-[4-(2-methoxyethyl)-1-piperidyl]-5-methyl-phenyl]-1-phenyl-1,2,4-triazol-3-amine], for which the fold induction at 1 µM is 100 to 1000 and the fold induction at 10 µM was 100 to 1000.
In the case of `Cc1cc(Nc2ncn(-c3ccccc3)n2)cc(N2CCN(C3CC3)CC2)c1` [Compound 149, N-[3-(4-cyclopropylpiperazin-1-yl)-5-methyl-phenyl]-1-phenyl-1,2,4-triazol-3-amine], the fold induction at 1 µM fell in the range of 1000 to 10000 and the fold induction at 10 µM was in the range of 10 to 100.
As to `Fc1ccc(-n2cnc(Nc3cc(C4CCOCC4)nc(C4CC4)c3)n2)cc1F` [Compound 150, 2-cyclopropyl-N-(1-(3,4-difluorophenyl)-1H-1,2,4-triazol-3-yl)-6-(tetrahydro-2H-pyran-4-yl)pyridin-4-amine], the fold induction at 1 µM fell in the range of 1000 to 10000 and the fold induction at 10 µM was at most 1.
